Measurements as given in patent US12252524B2, “GIP/GLP1 co-agonist compounds” (Eli Lilly and Company, priority 2018, dated 2025).
Numbered stars: 1 amine (or outer) side, 2 acyl side, 3 side chain; on linkers, the order of the positions; unused ones are H or OH. Square brackets hold non-standard residues; d marks the D form. Side chains are listed from the residue outwards. Peptide text beside a SMILES is read from it. * marks the point of attachment. C18 diacid = O=C(O)CCCCCCCCCCCCCCCCC(=O)*; αMePhe(2-F) = C[C@](N)(Cc1ccccc1F)C(=O)O; γGlu = O=C(O)[C@H](CCC(=O)[*:2])N[*:1]; αMeY = C[C@](N)(Cc1ccc(O)cc1)C(=O)O; αMeF = C[C@](N)(Cc1ccccc1)C(=O)O; 4Pal = N[C@@H](Cc1ccncc1)C(=O)O; αMeL = CC(C)C[C@](C)(N)C(=O)O; Orn = NCCC[C@H](N)C(=O)O; Dab = NCC[C@H](N)C(=O)O; AEEA = NCCOCCOCC(=O)O; Aib = CC(C)(N)C(=O)O

Legend:
[1] = target: T1, gastric inhibitory peptide receptor (GIPR) (Homo sapiens, UniProt P48546); assay: cAMP pharmacological functional assay in presence of casein, hGIPR; type: cell-based; conditions: HEK293 cells expressing hGIPR, 0.1% Casein, geometric mean; read-out: hGIPR cAMP Rel EC50 nM (SEM, n)
T1 sequence (P48546 22-466): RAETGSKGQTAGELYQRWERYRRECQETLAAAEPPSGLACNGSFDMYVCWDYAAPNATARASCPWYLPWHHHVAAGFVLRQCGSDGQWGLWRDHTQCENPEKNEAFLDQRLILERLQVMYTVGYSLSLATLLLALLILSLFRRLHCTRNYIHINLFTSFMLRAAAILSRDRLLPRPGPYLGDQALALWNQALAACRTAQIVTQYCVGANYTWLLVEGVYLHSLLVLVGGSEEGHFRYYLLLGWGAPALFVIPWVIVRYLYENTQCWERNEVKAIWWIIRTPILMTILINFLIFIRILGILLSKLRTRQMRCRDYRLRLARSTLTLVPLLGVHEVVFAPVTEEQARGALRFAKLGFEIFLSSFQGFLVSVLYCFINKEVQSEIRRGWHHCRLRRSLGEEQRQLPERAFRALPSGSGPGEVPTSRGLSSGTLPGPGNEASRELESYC

[2] = target: T2, human GIP receptor (Homo sapiens, UniProt P48546); assay: [125I]-GIP binding (SPA), human GIP receptor; conditions: read-out: hGIPR Ki, nM (SEM, n)
T2 construct: expressed in transfected cells; crude membranes
T2 sequence (P48546 22-466): T1 sequence (P48546 22-466)

[3] = target: human GLP-1 receptor (GLP-1R) (Homo sapiens, UniProt P43220); assay: cAMP pharmacological functional assay in presence of casein, hGLP-1R; type: cell-based; conditions: HEK293 cells expressing hGLP-1R, 0.1% Casein, geometric mean; read-out: hGLP1R cAMP Rel EC50 nM (SEM, n)
Sequence of human GLP-1 receptor (GLP-1R) (P43220 24-463): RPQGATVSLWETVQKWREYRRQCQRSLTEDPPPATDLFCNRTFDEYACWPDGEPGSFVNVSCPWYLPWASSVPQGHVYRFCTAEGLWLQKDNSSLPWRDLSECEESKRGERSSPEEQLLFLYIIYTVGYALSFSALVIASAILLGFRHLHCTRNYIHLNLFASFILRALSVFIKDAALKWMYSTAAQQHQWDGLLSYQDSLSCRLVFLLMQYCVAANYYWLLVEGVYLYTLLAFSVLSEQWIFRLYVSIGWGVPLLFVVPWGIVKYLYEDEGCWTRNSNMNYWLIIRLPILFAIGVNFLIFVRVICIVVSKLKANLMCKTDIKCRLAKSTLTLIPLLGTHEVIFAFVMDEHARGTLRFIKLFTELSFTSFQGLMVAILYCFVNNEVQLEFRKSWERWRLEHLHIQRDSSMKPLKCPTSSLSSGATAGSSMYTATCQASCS

[4] = target: T3, human Gcg receptor (Homo sapiens, UniProt P47871); assay: [125I]-Glucagon binding (SPA), human Gcg receptor; conditions: read-out: hGLcgR Ki, nM (SEM, n)
T3 construct: expressed in transfected cells; crude membranes
T3 sequence (P47871 26-477): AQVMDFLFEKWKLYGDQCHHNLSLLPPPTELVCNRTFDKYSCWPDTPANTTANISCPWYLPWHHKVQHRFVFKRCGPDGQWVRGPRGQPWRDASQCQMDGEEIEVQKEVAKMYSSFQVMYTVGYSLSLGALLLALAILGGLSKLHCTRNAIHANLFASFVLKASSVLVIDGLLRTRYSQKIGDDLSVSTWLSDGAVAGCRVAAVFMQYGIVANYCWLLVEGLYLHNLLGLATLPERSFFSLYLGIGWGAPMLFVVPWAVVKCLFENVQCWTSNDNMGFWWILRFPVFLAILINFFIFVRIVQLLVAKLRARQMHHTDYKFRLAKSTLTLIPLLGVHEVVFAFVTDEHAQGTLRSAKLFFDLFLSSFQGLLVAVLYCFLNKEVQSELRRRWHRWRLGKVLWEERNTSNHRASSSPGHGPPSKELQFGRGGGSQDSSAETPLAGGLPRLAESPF
Procedure, shortened: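 Crude membranes from cells expressing the receptor, prepared by hypotonic lysis in 50 mM Tris HCl pH 7.5 with protease inhibitors, homogenization and differential centrifugation, were used in a WGA-bead SPA. Binding buffer: 25 mM HEPES pH 7.4, 2.5 mM CaCl2, 1 mM MgCl2, bacitracin, Tween-20.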

[5] = target: human GLP-1R (Homo sapiens, UniProt P43220); assay: [125I]-GLP-1 binding (SPA), human GLP-1 receptor; set-up: expressed in transfected cells; crude membranes; conditions: read-out: hGLP1R Ki, (nM) (SEM, n)
Sequence of human GLP-1R (P43220 24-463): as the sequence (P43220 24-463) above
Procedure, shortened: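 Crude-membrane binding assay; one membrane prep included 1 mM MgCl2 and 25 units/ml DNAse I during lysis. Assay buffer at pH 7.4 contains 0.1% (w/v) bacitracin and 0.003% (w/v) TWEEN-20. Ki is reported as geometric mean.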

Work on `CC[C@H](C)[C@H](NC(=O)[C@H](CC(C)C)NC(=O)[C@H](Cc1ccc(O)cc1)NC(=O)[C@@H](CCC(=O)O)NC(=O)[C@@H](NC(=O)[C@H](Cc1ccccc1)NC(=O)[C@H](CCC(=O)O)NC(=O)C(C)(C)NC(=O)[C@H](CCC(N)=O)NC(=O)[C@H](C)NC(=O)[C@H](CCCCNC(=O)COCCOCCNC(=O)COCCOCCNC(=O)CC[C@H](NC(=O)CCCCCCCCCCCCCCCCC(=O)O)C(=O)O)NC(=O)[C@H](CCCN)NC(=O)[C@H](CC(=O)O)NC(=O)[C@H](CC(C)C)NC(=O)[C@](C)(CC(C)C)NC(=O)[C@@H](NC(=O)[C@H](CO)NC(=O)[C@H](Cc1ccncc1)NC(=O)[C@H](CC(=O)O)NC(=O)[C@H](CO)NC(=O)[C@@H](NC(=O)[C@](C)(Cc1ccccc1F)NC(=O)[C@@H](NC(=O)CNC(=O)[C@H](CCC(=O)O)NC(=O)C(C)(C)NC(=O)[C@@H](N)Cc1ccc(O)cc1)[C@@H](C)O)[C@@H](C)O)[C@@H](C)CC)[C@@H](C)CC)C(=O)N[C@@H](CCC(=O)O)C(=O)NCC(=O)NCC(=O)N1CCC[C@H]1C(=O)N[C@@H](CO)C(=O)N[C@@H](CO)C(=O)NCC(=O)N[C@@H](C)C(=O)N1CCC[C@H]1C(=O)N1CCC[C@H]1C(=O)N1CCC[C@H]1C(=O)N[C@@H](CO)C(N)=O` [Example 232] (H-Y[Aib]EGT[αMePhe(2-F)]TSD[4Pal]SI[αMeL]LD[Orn]K([AEEA-AEEA-γGlu-C18 diacid])AQ[Aib]EFI[dE]YLIEGGPSSGAPPPS-NH2) yielded an EC50 [1] of 0.027 nM, a Ki [2] of 0.0544 nM and an EC50 [3] of 0.0724 nM. It also gave a Ki [4] greater than 1150 nM and a Ki [5] of 5.62 nM.
Molecule `CC[C@H](C)[C@H](NC(=O)[C@H](CC(C)C)NC(=O)[C@H](Cc1ccc(O)cc1)NC(=O)[C@@H](CCC(=O)O)NC(=O)[C@@H](NC(=O)[C@H](Cc1ccccc1)NC(=O)[C@H](CCC(=O)O)NC(=O)C(C)(C)NC(=O)[C@H](CCC(N)=O)NC(=O)[C@H](C)NC(=O)[C@H](CCCCNC(=O)COCCOCCNC(=O)COCCOCCNC(=O)CC[C@H](NC(=O)CCCCCCCCCCCCCCCCC(=O)O)C(=O)O)NC(=O)[C@H](CCN)NC(=O)[C@H](CC(=O)O)NC(=O)[C@H](CC(C)C)NC(=O)[C@](C)(CC(C)C)NC(=O)[C@@H](NC(=O)[C@H](CO)NC(=O)[C@H](Cc1ccncc1)NC(=O)[C@H](CC(=O)O)NC(=O)[C@H](CO)NC(=O)[C@@H](NC(=O)[C@](C)(Cc1ccccc1F)NC(=O)[C@@H](NC(=O)CNC(=O)[C@H](CCC(=O)O)NC(=O)C(C)(C)NC(=O)[C@@H](N)Cc1ccc(O)cc1)[C@@H](C)O)[C@@H](C)O)[C@@H](C)CC)[C@@H](C)CC)C(=O)N[C@@H](CCC(=O)O)C(=O)NCC(=O)NCC(=O)N1CCC[C@H]1C(=O)N[C@@H](CO)C(=O)N[C@@H](CO)C(=O)NCC(=O)N[C@@H](C)C(=O)N1CCC[C@H]1C(=O)N1CCC[C@H]1C(=O)N1CCC[C@H]1C(=O)N[C@@H](CO)C(N)=O` [Example 233] (H-Y[Aib]EGT[αMePhe(2-F)]TSD[4Pal]SI[αMeL]LD[Dab]K([AEEA-AEEA-γGlu-C18 diacid])AQ[Aib]EFI[dE]YLIEGGPSSGAPPPS-NH2) has an EC50 [1] of 0.0288 nM, a Ki [2] of 0.0445 nM and an EC50 [3] of 0.0549 nM. For the same molecule, the Ki [4] was greater than 1150 nM and the Ki [5] was 5.99 nM.
For `CC[C@H](C)[C@H](NC(=O)[C@H](CC(C)C)NC(=O)[C@H](Cc1ccc(O)cc1)NC(=O)[C@@H](CCC(=O)O)NC(=O)[C@@H](NC(=O)[C@H](Cc1ccccc1)NC(=O)[C@H](CCC(=O)O)NC(=O)C(C)(C)NC(=O)[C@H](CCC(N)=O)NC(=O)[C@H](C)NC(=O)[C@H](CCCCNC(=O)COCCOCCNC(=O)COCCOCCNC(=O)CC[C@H](NC(=O)CCCCCCCCCCCCCCCCC(=O)O)C(=O)O)NC(=O)[C@H](CCN)NC(=O)[C@H](CC(=O)O)NC(=O)[C@H](CC(C)C)NC(=O)[C@H](CC(C)C)NC(=O)[C@@H](NC(=O)[C@H](CO)NC(=O)[C@H](Cc1ccncc1)NC(=O)[C@H](CC(=O)O)NC(=O)[C@H](CO)NC(=O)[C@@H](NC(=O)[C@](C)(Cc1ccccc1F)NC(=O)[C@@H](NC(=O)CNC(=O)[C@H](CCC(=O)O)NC(=O)C(C)(C)NC(=O)[C@@H](N)Cc1ccc(O)cc1)[C@@H](C)O)[C@@H](C)O)[C@@H](C)CC)[C@@H](C)CC)C(=O)N[C@@H](CCC(=O)O)C(=O)NCC(=O)NCC(=O)N1CCC[C@H]1C(=O)N[C@@H](CO)C(=O)N[C@@H](CO)C(=O)NCC(=O)N[C@@H](C)C(=O)N1CCC[C@H]1C(=O)N1CCC[C@H]1C(=O)N1CCC[C@H]1C(=O)N[C@@H](CO)C(N)=O` [Example 234] (H-Y[Aib]EGT[αMePhe(2-F)]TSD[4Pal]SILLD[Dab]K([AEEA-AEEA-γGlu-C18 diacid])AQ[Aib]EFI[dE]YLIEGGPSSGAPPPS-NH2), the EC50 [1] was 0.0372 nM, the Ki [2] was 0.0563 nM and the EC50 [3] was 0.0926 nM. The Ki [4] was greater than 1100 nM and the Ki [5] was 10.9 nM.
With `CC[C@H](C)[C@H](NC(=O)[C@H](CC(C)C)NC(=O)[C@H](Cc1ccc(O)cc1)NC(=O)[C@@H](CCC(=O)O)NC(=O)[C@@H](NC(=O)[C@H](Cc1ccccc1)NC(=O)[C@H](CCC(=O)O)NC(=O)C(C)(C)NC(=O)[C@H](CCC(N)=O)NC(=O)[C@H](C)NC(=O)[C@H](CCCCNC(=O)COCCOCCNC(=O)COCCOCCNC(=O)CC[C@H](NC(=O)CCCCCCCCCCCCCCCCC(=O)O)C(=O)O)NC(=O)[C@H](CCN)NC(=O)[C@H](CC(=O)O)NC(=O)[C@H](CC(C)C)NC(=O)[C@](C)(CC(C)C)NC(=O)[C@@H](NC(=O)[C@H](CO)NC(=O)[C@H](Cc1ccncc1)NC(=O)[C@H](CC(=O)O)NC(=O)[C@H](CO)NC(=O)[C@@H](NC(=O)[C@](C)(Cc1ccccc1)NC(=O)[C@@H](NC(=O)CNC(=O)[C@H](CCC(=O)O)NC(=O)C(C)(C)NC(=O)[C@@H](N)Cc1ccc(O)cc1)[C@@H](C)O)[C@@H](C)O)[C@@H](C)CC)[C@@H](C)CC)C(=O)N[C@@H](CCC(=O)O)C(=O)NCC(=O)NCC(=O)N1CCC[C@H]1C(=O)N[C@@H](CO)C(=O)N[C@@H](CO)C(=O)NCC(=O)N[C@@H](C)C(=O)N1CCC[C@H]1C(=O)N1CCC[C@H]1C(=O)N1CCC[C@H]1C(=O)N[C@@H](CO)C(N)=O` [Example 235] (H-Y[Aib]EGT[αMeF]TSD[4Pal]SI[αMeL]LD[Dab]K([AEEA-AEEA-γGlu-C18 diacid])AQ[Aib]EFI[dE]YLIEGGPSSGAPPPS-NH2) the EC50 [1] was 0.0372 nM, the Ki [2] was 0.0581 nM and the EC50 [3] was 0.136 nM. It also gave a Ki [4] greater than 1200 nM and a Ki [5] of 7.65 nM.
Molecule `CC[C@H](C)[C@H](NC(=O)[C@H](CC(C)C)NC(=O)[C@](C)(Cc1ccc(O)cc1)NC(=O)[C@@H](CCC(=O)O)NC(=O)[C@@H](NC(=O)[C@H](Cc1ccccc1)NC(=O)[C@H](CCC(=O)O)NC(=O)C(C)(C)NC(=O)[C@H](CCC(N)=O)NC(=O)[C@H](C)NC(=O)[C@H](CCCCNC(=O)COCCOCCNC(=O)COCCOCCNC(=O)CC[C@H](NC(=O)CCCCCCCCCCCCCCCCC(=O)O)C(=O)O)NC(=O)[C@H](CCCN)NC(=O)[C@H](CC(=O)O)NC(=O)[C@H](CC(C)C)NC(=O)[C@](C)(CC(C)C)NC(=O)[C@@H](NC(=O)[C@H](CO)NC(=O)[C@H](Cc1ccc(O)cc1)NC(=O)[C@H](CC(=O)O)NC(=O)[C@H](CO)NC(=O)[C@@H](NC(=O)[C@](C)(Cc1ccccc1F)NC(=O)[C@@H](NC(=O)CNC(=O)[C@H](CCC(=O)O)NC(=O)C(C)(C)NC(=O)[C@@H](N)Cc1ccc(O)cc1)[C@@H](C)O)[C@@H](C)O)[C@@H](C)CC)[C@@H](C)CC)C(=O)N[C@@H](CCC(=O)O)C(=O)NCC(=O)NCC(=O)N1CCC[C@H]1C(=O)N[C@@H](CO)C(=O)N[C@@H](CO)C(=O)NCC(=O)N[C@@H](C)C(=O)N1CCC[C@H]1C(=O)N1CCC[C@H]1C(=O)N1CCC[C@H]1C(=O)N[C@@H](CO)C(N)=O` [Example 236] (H-Y[Aib]EGT[αMePhe(2-F)]TSDYSI[αMeL]LD[Orn]K([AEEA-AEEA-γGlu-C18 diacid])AQ[Aib]EFI[dE][αMeY]LIEGGPSSGAPPPS-NH2) has an EC50 [1] of 0.0249 nM, a Ki [2] of 0.0425 nM and an EC50 [3] of 0.0231 nM. For the same molecule, the Ki [4] was 200 nM and the Ki [5] was 1.05 nM.
